Values quoted from earlier work as cited in patent US20240041983A1, “IMPROVED PHARMACEUTICAL FORMULATIONS OF GLP-1 RECEPTOR AGONISTS” (CYPRUMED GMBH, priority 2020, published 2024).

Details: in humans

- t½: ~1 week
Substance: semaglutide
